Results from patent publication US10537097B2, “Methods for treating red blood cells” (VIACELL, LLC., priority 2010, dated 2020).

How the values were obtained:
stored RBCs = assay: 2,3-DPG level of stored RBCs after incubation with storage and/or rejuvenating composition (Roche 2,3-DPG kit); assay type: cell-based; conditions: 60 minutes at 37° C.
Experimental: A storage and/or rejuvenating composition that includes D-ribose, inosine, sodium pyruvate, and inorganic phosphate, all at a 300 mM concentration as a slurry was prepared. When used to store and/or rejuvenate RBCs, the slurry is diluted 30-fold to a final concentration of 10 mM to form a solution. […] In a study, RBCs were collected and stored for an average of 21 days at 4° C. according to standard blood banking practice. Various RBC storage and/or rejuvenating compositions were added to the 21-day old stored RBCs and held at 37° C. for one to four hours before being tested for 2,3-DPG concentrations. […] A normal 2,3-DPG concentration of RBC immediately upon harvest is 4.0 μmol/ml. […] An increase to 1.0 μmol/ml is considered a significant improvement.

[1] = Solubility of nucleoside / concentrated composition; assay type: physicochemical; conditions: with L-arginine in an equimolecular solution; room temperature

In the case of `Nc1nc2c(ncn2[C@@H]2O[C@H](CO)[C@@H](O)[C@H]2O)c(=O)[nH]1` [Guanosine], the “2,3-DPG” value (stored RBCs; 1 mM guanosine with 10 mM each inorganic phosphate and D-ribose, no sodium pyruvate) is reported as 0.47 µmol/mL, the “2,3-DPG” value (stored RBCs; 5 mM guanosine with 10 mM each inorganic phosphate and D-ribose, no sodium pyruvate) is reported as 1.30 µmol/mL and the “2,3-DPG” value (stored RBCs; 10 mM guanosine with 10 mM each inorganic phosphate and D-ribose, no sodium pyruvate) is reported as 1.10 µmol/mL. For the same molecule, the Rejuvenation (stored RBCs; guanosine at indicated concentration with 10 mM each inorganic phosphate and D-ribose, no sodium pyruvate) was “Rejuvenation was observed”.

In the case of `OC[C@H]1O[C@@H](n2cnc3c(O)ncnc32)[C@H](O)[C@@H]1O` [inosine], the “Concentration at which inosine remained in solution” value [1] is reported as “above 50 mM”.

In the case of `O=C[C@H](O)[C@H](O)[C@H](O)COP(=O)(O)O` [ribose-5-phosphate], the Rejuvenation (stored RBCs; varying concentrations replacing inosine, with 10 mM each D-ribose, sodium pyruvate, inorganic phosphate) is reported as “Rejuvenation was not observed”.
